Data on 29 compounds can be found in ChEMBL document CHEMBL2448809, “UCSF DeRisi Lab MMV Box Apicoplast Screening”.

In this assay the test system is Plasmodium falciparum. Kind of assay: MMV: Compounds (1uM) were screened in a 72hr growth assay monitored by flow cytometry both in the presence and absence of supplemental isopentenyl pyrophosphate (IPP) 200uM. Compounds which fail to show anti-malarial activity when chemically rescued by IPP are therefore specific to the apicoplast. The values are expressed as the ratio of the corresponding activity with and without IPP, respectively. The class given is functional, W2. Background: A flow cytometer gives signals particle by particle.
Turning to `O=C(O)C(=O)O.Oc1ccccc1CN1CCN(C(c2ccccc2)c2ccccc2)CC1`, the Ratio is listed as 1.068. Turning to `CCOC(=O)c1cn(CC)c2cc(N(C)CCc3ccc(OC)c(OC)c3)c(F)cc2c1=O`, the Ratio came to 0.75. The same measure for `Cc1ccc(OCCCCCCNCCO)c(C)c1`: 0.8556.

As to `N=c1c2ccccc2nnn1-c1cccc(C(F)(F)F)c1`, the Ratio stood at 1.0625.

For the compound `CSc1ccccc1C(=O)Nc1nc(-c2ccccn2)cs1`, the Ratio turned out to be 0.8125.

As for `COc1ccc(N2CCN(C(CNC(=O)C3CCCCC3)c3ccc4c(c3)OCO4)CC2)cc1` (centres undefined), the Ratio is reported as 0.9206. The same measure for `O=C(NC1CCN(Cc2ccccc2)CC1)c1cc(C(=O)NC2CCN(Cc3ccccc3)CC2)cc(C(=O)NC2CCN(Cc3ccccc3)CC2)c1`: 1.119; for `O=C(Nc1nc(-c2ccccn2)cs1)c1ccccc1Br`: 0.987.

For `CCN1CCN(Cc2ccc(NC(=O)c3cc4ccc5cccnc5c4[nH]3)cc2)CC1`, the Ratio was 1.563. In the case of `O=C(CCc1ccco1)NC1CCN(CC2(c3ccc(Cl)cc3)CCC2)CC1`, the Ratio worked out at 0.875. As for `Oc1c(C(Nc2ccccn2)c2cccc(Oc3ccccc3)c2)ccc2cccnc12` (centres undefined), the figure is 0.7317. As for `COc1cc(OC)c(N(C)C(=O)c2cc3c(s2)-c2ccccc2S(=O)(=O)C3)cc1Cl`, the figure is 1; as for `FC(F)(F)c1cccc(Nc2nc3ccccc3nc2Nc2cccc(C(F)(F)F)c2)c1`, 1.08.

For the compound `COc1cc(-c2nc(-c3ccccc3)c(-c3ccccc3)[nH]2)cc(OC)c1O`, the Ratio is recorded as 1.031. The same measure for `CCOC(=O)C1=C(C)N=c2sc(=Cc3cc(Cl)ccc3O)c(=O)n2C1c1ccc(OC)cc1` (centres undefined): 1.255; for `OC(Cn1nnc2ccccc21)Cn1c2ccc(Br)cc2c2cc(Br)ccc21` (centres undefined): 0.9531; for `CCOC(=O)c1cnc2ccc(Cl)cc2c1NCCCN(C)C`: 1.179.

For `CC1CCN(Cc2c(O)ccc3cc(-c4nc5ccccc5s4)c(=O)oc23)CC1`, the Ratio amounted to 1.058.

For `COc1cccc(NC(=O)[C@H](C(C)C)n2c(=O)[nH]c3ccccc3c2=O)c1`, the Ratio is 0.7619. As for `CC(C)(C)CC(C)(C)NCC(O)COc1ccc(Cl)cc1Cl` (centres undefined), the figure is 0.8983.

For the compound `CCN(CC)CCCNc1nc(-c2ccc(Cl)cc2)nc2ccccc12`, the Ratio is 1.055. Turning to `COC(=O)c1ccc(C2C3=C(O)CC(c4ccc(F)cc4)CC3=Nc3ccccc3N2C(=O)c2ccccc2)cc1` (centres undefined), the Ratio was 0.9016. Regarding `CCCC(c1nnnn1C1CCCCC1)N1CCN(C(=O)c2ccco2)CC1.Cl` (centres undefined), the Ratio was 1.023. As for `CCCCNc1nc(NC(C)(C)C)nc(NC(C)(C)C)n1`, the figure is 1.02; as for `CCc1ccc(CNCC(O)c2ccccc2)cc1.Cl` (centres undefined), 1.061. Take `COc1ccc(CCNC(=O)c2cc(S(=O)(=O)N3CC(C)CC(C)C3)ccc2Sc2ccc(F)cc2)cc1OC` (centres undefined): the Ratio was determined as 1.061.

For `N=c1n(CCN2CCCCC2)c2ccccc2n1CC(=O)c1ccc(Cl)c(Cl)c1`, the Ratio is recorded as 1.14. As for `COc1cccc(C(=O)NC(c2ccc(C)cc2)c2cc(Cl)c3cccnc3c2O)c1` (centres undefined), the figure is 1.1; as for `CC1CN(C(=O)c2sc3ccccc3c2Cl)CC(C)O1` (centres undefined), 0.8415.
